The source made the active and inactive calls. How the calls were made is not given here.
Test system: CCRIS mutagenicity, Ames/micronucleus/aberration tests
Assay: CCRIS mutagenicity studies

Measured: mutagenic call

Oc1ccc(-c2ccc(O)cc2)cc1
inactive: Test System: AMES SALMONELLA TYPHIMURIUM, Strain/Indicator: TA97, Metabolic Activation: NONE, Method: PREINCUBATION inactive; negative | Test System: AMES SALMONELLA TYPHIMURIUM, Strain/Indicator: TA97, Metabolic Activation: RAT, LIVER, S-9, AROCLOR 1254, Method: PREINCUBATION inactive; negative | Test System: AMES SALMONELLA TYPHIMURIUM, Strain/Indicator: TA98, Metabolic Activation: NONE, Method: PREINCUBATION inactive; negative | Test System: AMES SALMONELLA TYPHIMURIUM, Strain/Indicator: TA98, Metabolic Activation: RAT, LIVER, S-9, AROCLOR 1254, Method: PREINCUBATION inactive; negative | Test System: AMES SALMONELLA TYPHIMURIUM, Strain/Indicator: TA100, Metabolic Activation: NONE, Method: PREINCUBATION inactive; negative | Test System: AMES SALMONELLA TYPHIMURIUM, Strain/Indicator: TA100, Metabolic Activation: RAT, LIVER, S-9, AROCLOR 1254, Method: PREINCUBATION inactive; negative | Test System: AMES SALMONELLA TYPHIMURIUM, Strain/Indicator: TA102, Metabolic Activation: NONE, Method: PREINCUBATION inactive; negative | Test System: AMES SALMONELLA TYPHIMURIUM, Strain/Indicator: TA102, Metabolic Activation: RAT, LIVER, S-9, AROCLOR 1254, Method: PREINCUBATION inactive; negative | Test System: AMES SALMONELLA TYPHIMURIUM, Strain/Indicator: TA104, Metabolic Activation: NONE, Method: PREINCUBATION inactive; negative | Test System: AMES SALMONELLA TYPHIMURIUM, Strain/Indicator: TA104, Metabolic Activation: RAT, LIVER, S-9, AROCLOR 1254, Method: PREINCUBATION inactive; negative | Test System: AMES SALMONELLA TYPHIMURIUM, Strain/Indicator: TA1535, Metabolic Activation: NONE, Method: PREINCUBATION inactive; negative | Test System: AMES SALMONELLA TYPHIMURIUM, Strain/Indicator: TA1535, Metabolic Activation: RAT, LIVER, S-9, AROCLOR 1254, Method: PREINCUBATION inactive; negative | Test System: CHINESE HAMSTER V-79, Strain/Indicator: V-79/6-THIOGUANINE, Metabolic Activation: NONE inactive; negative

Cc1cc(Cl)ccc1OCC(=O)O
inactive: Test System: AMES SALMONELLA TYPHIMURIUM, Strain/Indicator: TA97, Metabolic Activation: NONE, Method: STANDARD PLATE inactive; negative | Test System: AMES SALMONELLA TYPHIMURIUM, Strain/Indicator: TA97, Metabolic Activation: RAT, LIVER, S-9, AROCLOR 1254, Method: STANDARD PLATE inactive; negative | Test System: AMES SALMONELLA TYPHIMURIUM, Strain/Indicator: TA97A, Metabolic Activation: NONE, Method: STANDARD PLATE inactive; negative | Test System: AMES SALMONELLA TYPHIMURIUM, Strain/Indicator: TA97A, Metabolic Activation: RAT, LIVER, S-9, AROCLOR 1254, Method: STANDARD PLATE inactive; negative | Test System: AMES SALMONELLA TYPHIMURIUM, Strain/Indicator: TA98, Metabolic Activation: NONE, Method: STANDARD PLATE inactive; negative | Test System: AMES SALMONELLA TYPHIMURIUM, Strain/Indicator: TA98, Metabolic Activation: RAT, LIVER, S-9, AROCLOR 1254, Method: STANDARD PLATE inactive; negative | Test System: AMES SALMONELLA TYPHIMURIUM, Strain/Indicator: TA100, Metabolic Activation: NONE, Method: STANDARD PLATE inactive; negative | Test System: AMES SALMONELLA TYPHIMURIUM, Strain/Indicator: TA100, Metabolic Activation: RAT, LIVER, S-9, AROCLOR 1254, Method: STANDARD PLATE inactive; negative | Test System: AMES SALMONELLA TYPHIMURIUM, Strain/Indicator: TA102, Metabolic Activation: NONE, Method: STANDARD PLATE inactive; negative | Test System: AMES SALMONELLA TYPHIMURIUM, Strain/Indicator: TA102, Metabolic Activation: RAT, LIVER, S-9, AROCLOR 1254, Method: STANDARD PLATE inactive; negative | Test System: AMES SALMONELLA TYPHIMURIUM, Strain/Indicator: TA1535, Metabolic Activation: NONE, Method: STANDARD PLATE inactive; negative | Test System: AMES SALMONELLA TYPHIMURIUM, Strain/Indicator: TA1535, Metabolic Activation: RAT, LIVER, S-9, AROCLOR 1254, Method: STANDARD PLATE inactive; negative | Test System: AMES SALMONELLA TYPHIMURIUM, Strain/Indicator: TA1537, Metabolic Activation: NONE, Method: STANDARD PLATE inactive; negative | Test System: AMES SALMONELLA TYPHIMURIUM, Strain/Indicator: TA1537, Metabolic Activation: RAT, LIVER, S-9, AROCLOR 1254, Method: STANDARD PLATE inactive; negative | Test System: AMES SALMONELLA TYPHIMURIUM, Strain/Indicator: TA1538, Metabolic Activation: NONE, Method: STANDARD PLATE inactive; negative | Test System: AMES SALMONELLA TYPHIMURIUM, Strain/Indicator: TA1538, Metabolic Activation: RAT, LIVER, S-9, AROCLOR 1254, Method: STANDARD PLATE inactive; negative
